# From patent US6143492A, “Optical molecular sensors for cytochrome P450 activity” (Aurora Biosciences Corporation, priority 1999, dated 2000)
# Molecular target: CYP 2C19 (Homo sapiens, UniProt P33261)
# Test: Kinetics of fluorogenic substrates with CYP 2C19
# Type: biochemical
# Conditions: CYP 2C19
# Chain of CYP 2C19 (P33261 whole entry): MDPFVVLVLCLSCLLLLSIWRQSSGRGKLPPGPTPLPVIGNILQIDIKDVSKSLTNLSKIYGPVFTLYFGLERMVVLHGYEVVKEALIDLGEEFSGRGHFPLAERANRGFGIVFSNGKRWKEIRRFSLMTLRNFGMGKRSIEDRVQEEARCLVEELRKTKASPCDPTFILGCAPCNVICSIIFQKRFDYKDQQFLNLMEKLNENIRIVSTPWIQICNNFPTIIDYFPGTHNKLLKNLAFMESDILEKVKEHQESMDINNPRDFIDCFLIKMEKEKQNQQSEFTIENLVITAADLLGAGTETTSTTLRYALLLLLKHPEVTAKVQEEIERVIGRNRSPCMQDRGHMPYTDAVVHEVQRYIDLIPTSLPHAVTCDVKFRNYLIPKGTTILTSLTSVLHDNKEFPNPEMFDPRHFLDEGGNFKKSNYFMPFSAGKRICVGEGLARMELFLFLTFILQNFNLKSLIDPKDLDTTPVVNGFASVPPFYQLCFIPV
kcat [s⁻¹],kcat/Km [M⁻¹ s⁻¹],Structure (SMILES)
0.0283,4106,CCCCCCCCOCOc1ccc2cc(C#N)c(=O)oc2c1 [OOMCC]
0.0067,784,CCN(CC)Cc1cc(=O)oc2cc(OC)ccc12 [DMMC]

# Same assay, conditions: CYP 2C19, substrate 1.25 uM
row,"v (1.25 uM), turnover rate at 1.25 μM [min⁻¹]",Structure (SMILES)
1,0.179,CCCCCCCCOCOc1ccc2cc(C#N)c(=O)oc2c1 [OOMCC]
2,0.03,CCN(CC)Cc1cc(=O)oc2cc(OC)ccc12 [DMMC]

# Same assay, conditions: CYP 2C19, substrate 10 uM
row,"v (10 uM), turnover rate at 10 μM [min⁻¹]",Structure (SMILES)
1,1.043,CCCCCCCCOCOc1ccc2cc(C#N)c(=O)oc2c1 [OOMCC]
2,0.23,CCN(CC)Cc1cc(=O)oc2cc(OC)ccc12 [DMMC]

# Molecular target: T1, CYP 3A4 (Homo sapiens, UniProt P08684)
# T1 construct: NADPH regenerating system
# Test: Kinetics of fluorogenic substrates with CYP 3A4
# Type: biochemical
# Conditions: CYP 3A4
# Description: Whichever of the four abstractable hydrogen atoms (designated H^1 and H^2 in this representation of BOMR) is removed in the initial reaction step, with reference to Reaction Scheme 1 of FIG. 1, the hydroxylation product will spontaneously decompose to the free resorufin dye. In addition, the benzyloxy group, attached to the carbon carrying the two hydrogens designated H^2, contributes an inductive electronic effect on that carbon, which can stabilize the radical formed during abstraction of one of the H^2 hydrogens by a cytochrome P450.
# Optimization of assay conditions was, and is preferably, accomplished through statistically validated Design of Experiments methodologies, using the commercial software package "Design-Expert®" produced by Stat-Ease® Inc. The data shown in FIGS. 4 and 5 were obtained with initial optimization.
# For further understanding these terms in the context of this invention, attention is directed to FIG. 4 and the analysis of FIG. 4.
# T1 sequence (P08684 whole entry): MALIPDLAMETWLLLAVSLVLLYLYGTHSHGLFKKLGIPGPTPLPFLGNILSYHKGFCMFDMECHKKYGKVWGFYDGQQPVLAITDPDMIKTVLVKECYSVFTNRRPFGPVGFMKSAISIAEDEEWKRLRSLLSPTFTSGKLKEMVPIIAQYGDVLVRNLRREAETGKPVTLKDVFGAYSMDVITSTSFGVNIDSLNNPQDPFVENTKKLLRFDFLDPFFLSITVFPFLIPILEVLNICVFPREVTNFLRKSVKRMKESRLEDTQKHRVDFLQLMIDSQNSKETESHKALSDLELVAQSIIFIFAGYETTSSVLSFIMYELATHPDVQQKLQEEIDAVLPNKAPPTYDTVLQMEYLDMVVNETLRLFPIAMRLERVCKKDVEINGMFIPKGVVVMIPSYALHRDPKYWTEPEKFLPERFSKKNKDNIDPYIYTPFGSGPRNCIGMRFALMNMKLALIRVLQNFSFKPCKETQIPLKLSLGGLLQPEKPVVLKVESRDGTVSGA
kcat [s⁻¹],kcat/Km [M⁻¹ s⁻¹],type of kinetics,conversion to the same fluorescent product vs the most closely structurally-related substrate,Structure (SMILES)
0.0667,,Michaelis-,more efficient conversion,O=c1cc(C(F)(F)F)c2ccc(OCOCc3ccccc3)cc2o1 [BOMFC]
0.0183,13095,Michaelis-,more efficient conversion,"O=c1ccc2nc3ccc(OCOCc4ccccc4)cc3oc-2c1 [BOMR, Benzyloxymethylresorufin]"
0.0017,,Michaelis-,more efficient conversion,CCOCOc1ccc2nc3ccc(=O)cc-3oc2c1 [EOMR]

# Continued, compound first:
Structure (SMILES),kcat [s⁻¹],kcat/Km [M⁻¹ s⁻¹],type of kinetics,conversion to the same fluorescent product vs the most closely structurally-related substrate
CCCCCCCCOCOc1ccc2cc(C#N)c(=O)oc2c1 [OOMCC],0.0198,4506,,
CC1(C)C2=C(Cl)C(=O)C(Cl)=CC2=Nc2ccc(OCOCc3ccccc3)cc21 [BOMDDAO],0.1,14286,,
"O=c1cc(C(F)(F)F)c2ccc(OCc3ccccc3)cc2o1 [BFC, 7-Benzyloxy-4-trifluoromethylcoumarin, reference compound]",,,linear,
O=C(OCc1ccccc1)c1c2oc3cc(OCc4ccccc4)ccc3nc-2ccc1=O [BRCBE],0.0138,5123,,

# Same assay, conditions: CYP 3A4, FIG. 4 data
row,turnover rate (kcat) [s⁻¹],Structure (SMILES)
1,0.5,"O=c1ccc2nc3ccc(OCOCc4ccccc4)cc3oc-2c1 [BOMR, Benzyloxymethylresorufin]"

# Same assay, conditions: CYP 3A4, substrate 1.25 uM
row,"v (1.25 uM), turnover rate at 1.25 μM [min⁻¹]",Structure (SMILES)
1,0.11,O=c1cc(C(F)(F)F)c2ccc(OCOCc3ccccc3)cc2o1 [BOMFC]
2,0.55,"O=c1ccc2nc3ccc(OCOCc4ccccc4)cc3oc-2c1 [BOMR, Benzyloxymethylresorufin]"
3,0.03,CCOCOc1ccc2nc3ccc(=O)cc-3oc2c1 [EOMR]

# Continued, compound first:
row,Structure (SMILES),"v (1.25 uM), turnover rate at 1.25 μM [min⁻¹]"
1,CCCCCCCCOCOc1ccc2cc(C#N)c(=O)oc2c1 [OOMCC],0.2274
2,CC1(C)C2=C(Cl)C(=O)C(Cl)=CC2=Nc2ccc(OCOCc3ccccc3)cc21 [BOMDDAO],0.4402
3,"O=c1cc(C(F)(F)F)c2ccc(OCc3ccccc3)cc2o1 [BFC, 7-Benzyloxy-4-trifluoromethylcoumarin, reference compound]",0.04
4,O=C(OCc1ccccc1)c1c2oc3cc(OCc4ccccc4)ccc3nc-2ccc1=O [BRCBE],0.1992

# Same assay, conditions: CYP 3A4, substrate 10 uM
row,"v (10 uM), turnover rate at 10 μM [min⁻¹]",Structure (SMILES)
1,1.41,O=c1cc(C(F)(F)F)c2ccc(OCOCc3ccccc3)cc2o1 [BOMFC]
2,0.88,"O=c1ccc2nc3ccc(OCOCc4ccccc4)cc3oc-2c1 [BOMR, Benzyloxymethylresorufin]"
3,0.10,CCOCOc1ccc2nc3ccc(=O)cc-3oc2c1 [EOMR]

# More lines, now with the values behind:
row,Structure (SMILES),"v (10 uM), turnover rate at 10 μM [min⁻¹]"
1,CCCCCCCCOCOc1ccc2cc(C#N)c(=O)oc2c1 [OOMCC],0.981
2,CC1(C)C2=C(Cl)C(=O)C(Cl)=CC2=Nc2ccc(OCOCc3ccccc3)cc21 [BOMDDAO],4.2041
3,"O=c1cc(C(F)(F)F)c2ccc(OCc3ccccc3)cc2o1 [BFC, 7-Benzyloxy-4-trifluoromethylcoumarin, reference compound]",0.81
4,O=C(OCc1ccccc1)c1c2oc3cc(OCc4ccccc4)ccc3nc-2ccc1=O [BRCBE],0.6241

# Same assay, conditions: FIG. 4 data
CYP 3A4 turnover rate of BOMR relative to BR,enzymatic efficiency (kcat /Km) of CYP 3A4 towards BOMR relative to BR [times],Structure (SMILES)
approximately five times greater,14,"O=c1ccc2nc3ccc(OCOCc4ccccc4)cc3oc-2c1 [BOMR, Benzyloxymethylresorufin]"

# Molecular target: T2, CYP 2B6 (Homo sapiens, UniProt P20813)
# T2 sequence (P20813 1-491): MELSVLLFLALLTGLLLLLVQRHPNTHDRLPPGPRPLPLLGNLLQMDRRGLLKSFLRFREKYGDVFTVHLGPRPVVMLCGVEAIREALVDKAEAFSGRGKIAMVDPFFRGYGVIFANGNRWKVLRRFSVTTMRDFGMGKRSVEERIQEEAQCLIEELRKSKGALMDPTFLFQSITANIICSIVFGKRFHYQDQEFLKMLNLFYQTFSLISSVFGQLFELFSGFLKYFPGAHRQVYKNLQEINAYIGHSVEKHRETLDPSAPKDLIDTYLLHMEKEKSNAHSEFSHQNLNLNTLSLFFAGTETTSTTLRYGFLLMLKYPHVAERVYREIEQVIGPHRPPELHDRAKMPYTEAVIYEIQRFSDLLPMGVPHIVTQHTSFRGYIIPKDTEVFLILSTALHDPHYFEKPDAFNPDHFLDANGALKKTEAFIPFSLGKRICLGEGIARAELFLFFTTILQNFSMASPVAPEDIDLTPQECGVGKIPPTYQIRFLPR
# Test: not given
# Conditions: not given
conversion to the same fluorescent product vs the most closely structurally-related substrate,kcat [s⁻¹],kcat/Km [M⁻¹ s⁻¹],type of kinetics,"v (1.25 uM), turnover rate at 1.25 μM [min⁻¹]","v (10 uM), turnover rate at 10 μM [min⁻¹]",Structure (SMILES)
more efficient conversion,0.013,18265,Michaelis-,0.28,0.71,"O=c1ccc2nc3ccc(OCOCc4ccccc4)cc3oc-2c1 [BOMR, Benzyloxymethylresorufin]"
